In ChEMBL document CHEMBL5543122, “Discovery of HC-7366: An Orally Bioavailable and Efficacious GCN2 Kinase Activator” (J Med Chem, 2024):
Active and inactive are the calls of the source. The rule behind the calls is not given here.

How the values were obtained:
[1] = molecular target: T1, Eukaryotic translation initiation factor 2-alpha kinase 3 (Homo sapiens, UniProt Q9NZJ5); experiment: Activation of PERK in HEK293 cells transfected with ATF4 response element preincubated for 30 mins followed by tunicamycin addition and measured after 6 hrs by One-Glo reagent based plate reader assay; assay type: cell-based
T1 sequence (Q9NZJ5 whole entry): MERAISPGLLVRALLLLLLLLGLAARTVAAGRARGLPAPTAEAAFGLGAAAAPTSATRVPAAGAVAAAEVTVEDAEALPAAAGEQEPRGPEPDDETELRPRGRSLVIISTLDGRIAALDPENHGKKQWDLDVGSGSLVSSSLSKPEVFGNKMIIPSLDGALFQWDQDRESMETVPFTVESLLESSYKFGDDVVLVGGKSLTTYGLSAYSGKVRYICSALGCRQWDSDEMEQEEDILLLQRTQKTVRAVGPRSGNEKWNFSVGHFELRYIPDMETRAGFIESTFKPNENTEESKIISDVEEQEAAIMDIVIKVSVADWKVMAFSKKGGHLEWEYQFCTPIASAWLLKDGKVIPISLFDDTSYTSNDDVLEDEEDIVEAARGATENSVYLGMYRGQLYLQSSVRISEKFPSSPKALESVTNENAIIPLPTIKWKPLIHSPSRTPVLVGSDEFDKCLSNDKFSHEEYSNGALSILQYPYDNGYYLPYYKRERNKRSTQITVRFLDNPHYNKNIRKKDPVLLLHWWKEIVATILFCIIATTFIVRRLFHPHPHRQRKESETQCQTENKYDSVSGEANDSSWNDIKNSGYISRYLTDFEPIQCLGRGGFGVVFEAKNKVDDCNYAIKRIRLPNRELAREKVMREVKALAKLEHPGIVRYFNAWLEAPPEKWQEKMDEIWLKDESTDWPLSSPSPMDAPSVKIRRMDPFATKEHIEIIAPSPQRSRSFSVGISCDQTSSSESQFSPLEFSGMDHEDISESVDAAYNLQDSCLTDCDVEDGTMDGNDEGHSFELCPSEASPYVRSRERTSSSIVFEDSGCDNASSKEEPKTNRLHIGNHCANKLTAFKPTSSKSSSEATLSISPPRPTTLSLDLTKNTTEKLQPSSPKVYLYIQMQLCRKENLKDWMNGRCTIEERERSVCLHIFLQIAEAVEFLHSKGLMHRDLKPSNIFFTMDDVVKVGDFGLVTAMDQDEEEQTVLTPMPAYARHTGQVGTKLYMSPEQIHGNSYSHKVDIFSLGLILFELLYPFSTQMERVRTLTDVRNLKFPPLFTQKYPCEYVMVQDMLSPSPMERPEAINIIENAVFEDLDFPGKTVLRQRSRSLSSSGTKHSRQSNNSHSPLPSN

[2] = physchem; settings: 1-octanol/PBS, pH 7.4
[3] = molecular target: Cytochrome P450 3A4 (Homo sapiens, UniProt P08684); experiment: Inhibition of CYP3A4 in human liver microsomes using midazolam substrate incubated for 5 mins in presence of NADPH by UPLC-MS/MS analysis
[4] = molecular target: T2, eIF-2-alpha kinase GCN2 (Homo sapiens, UniProt Q9P2K8); settings: HEK293, filed as activator, time 6.5 hrs
[5] = molecular target: T2, eIF-2-alpha kinase GCN2; experiment: Activation of GCN2 in HEK293 cells transfected with ATF4 response element preincubated for 30 mins followed by halofuginone addition and measured after 6 hrs by One-Glo reagent based plate reader assay; assay type: cell-based
[6] = Protein binding in HEK293 cells assessed as free fraction; assay type: ADME, cell-based; settings: human
[7] = molecular target: T2, eIF-2-alpha kinase GCN2; experiment: Inhibition of GCN2 (unknown origin) using GFP-eIF2alpha as substrate incubated for 1.5 hrs in presence of ATP by plate reader analysis
[8] = molecular target: T3, Eukaryotic translation initiation factor 2-alpha kinase 3 (Homo sapiens) (UniProt Q9NZJ5); experiment: Activation of PERK in HEK293 cells transfected with ATF4 response element assessed as unbound effective concentration preincubated for 30 mins followed by tunicamycin addition and measured after 6 hrs by One-Glo reagent based plate reader assay; assay type: cell-based; settings: filed as activator, time 6.5 hrs
T3 sequence (whole entry): T1 sequence (Q9NZJ5 whole entry)

[9] = Half-life in Sprague-Dawley rat at 1 mg/kg, iv measured upto 24 hrs; assay type: ADME, organism-based; settings: in vivo
[10] = Cmax in Sprague-Dawley rat at 3 mg/kg, po measured upto 24 hrs; assay type: ADME, organism-based; settings: in vivo
[11] = Unbound fraction in Sprague-Dawley rat plasma at 1 mg/kg, iv measured upto 24 hrs; assay type: ADME, organism-based
[12] = Unbound Cmax in Sprague-Dawley rat at 3 mg/kg, po measured upto 24 hrs; assay type: ADME, organism-based; settings: in vivo
[13] = Intrinsic clearance in rat hepatocytes assessed per 10^4 cells at 1 uM measured upto 120 mins by UPLC-MS/MS analysis; assay type: ADME, cell-based, Hepatocyte; settings: 2 h
[14] = Unbound AUC in Sprague-Dawley rat at 3 mg/kg, po measured upto 24 hrs; assay type: ADME, organism-based; settings: in vivo
[15] = Oral bioavailability in Sprague-Dawley rat at 3 mg/kg measured upto 24 hrs; assay type: ADME, organism-based; settings: in vivo; for F: po, 3 mg/kg, 24 h
[16] = Intrinsic clearance in human hepatocytes assessed per 10^4 cells at 1 uM measured upto 120 mins by UPLC-MS/MS analysis; assay type: ADME, cell-based, Hepatocyte; settings: 2 h
[17] = Unbound clearance in Sprague-Dawley rat plasma at 1 mg/kg, iv measured upto 24 hrs; assay type: ADME, organism-based; settings: in vivo
[18] = Volume of distribution at steady state in Sprague-Dawley rat at 1 mg/kg, iv measured upto 24 hrs; assay type: ADME, organism-based; settings: in vivo, read-out: Vdss
[19] = Unbound volume of distribution at steady state in Sprague-Dawley rat at 1 mg/kg, iv measured upto 24 hrs; assay type: ADME, organism-based; settings: in vivo
[20] = system: MOLM-16; experiment: Antitumor activity against human MOLM16 cells xenografted in BALB/c nude mouse assessed as reduction in tumor growth at 1 to 3 mg/kg administered twice a day for 17 days; assay type: functional, organism-based; settings: dose 1-3 mg/kg, time 17.0 day
[21] = system: Mus musculus; experiment: In vivo activation of GCN2 in BALB/c nude mouse xenografted with human HT-1080 cells assessed as […] ASNS protein level in tumor at 0.3 to 3 mg/kg after 6 hrs; assay type: functional, organism-based; settings: dose 0.3-3 mg/kg
[22] = system: Mus musculus; experiment: In vivo activation of GCN2 in BALB/c nude mouse xenografted with human HT-1080 cells assessed as […] ATF4 protein level in tumor at 0.3 to 3 mg/kg after 6 hrs; assay type: functional, organism-based; settings: dose 0.3-3 mg/kg

T2 sequence (Q9P2K8 whole entry): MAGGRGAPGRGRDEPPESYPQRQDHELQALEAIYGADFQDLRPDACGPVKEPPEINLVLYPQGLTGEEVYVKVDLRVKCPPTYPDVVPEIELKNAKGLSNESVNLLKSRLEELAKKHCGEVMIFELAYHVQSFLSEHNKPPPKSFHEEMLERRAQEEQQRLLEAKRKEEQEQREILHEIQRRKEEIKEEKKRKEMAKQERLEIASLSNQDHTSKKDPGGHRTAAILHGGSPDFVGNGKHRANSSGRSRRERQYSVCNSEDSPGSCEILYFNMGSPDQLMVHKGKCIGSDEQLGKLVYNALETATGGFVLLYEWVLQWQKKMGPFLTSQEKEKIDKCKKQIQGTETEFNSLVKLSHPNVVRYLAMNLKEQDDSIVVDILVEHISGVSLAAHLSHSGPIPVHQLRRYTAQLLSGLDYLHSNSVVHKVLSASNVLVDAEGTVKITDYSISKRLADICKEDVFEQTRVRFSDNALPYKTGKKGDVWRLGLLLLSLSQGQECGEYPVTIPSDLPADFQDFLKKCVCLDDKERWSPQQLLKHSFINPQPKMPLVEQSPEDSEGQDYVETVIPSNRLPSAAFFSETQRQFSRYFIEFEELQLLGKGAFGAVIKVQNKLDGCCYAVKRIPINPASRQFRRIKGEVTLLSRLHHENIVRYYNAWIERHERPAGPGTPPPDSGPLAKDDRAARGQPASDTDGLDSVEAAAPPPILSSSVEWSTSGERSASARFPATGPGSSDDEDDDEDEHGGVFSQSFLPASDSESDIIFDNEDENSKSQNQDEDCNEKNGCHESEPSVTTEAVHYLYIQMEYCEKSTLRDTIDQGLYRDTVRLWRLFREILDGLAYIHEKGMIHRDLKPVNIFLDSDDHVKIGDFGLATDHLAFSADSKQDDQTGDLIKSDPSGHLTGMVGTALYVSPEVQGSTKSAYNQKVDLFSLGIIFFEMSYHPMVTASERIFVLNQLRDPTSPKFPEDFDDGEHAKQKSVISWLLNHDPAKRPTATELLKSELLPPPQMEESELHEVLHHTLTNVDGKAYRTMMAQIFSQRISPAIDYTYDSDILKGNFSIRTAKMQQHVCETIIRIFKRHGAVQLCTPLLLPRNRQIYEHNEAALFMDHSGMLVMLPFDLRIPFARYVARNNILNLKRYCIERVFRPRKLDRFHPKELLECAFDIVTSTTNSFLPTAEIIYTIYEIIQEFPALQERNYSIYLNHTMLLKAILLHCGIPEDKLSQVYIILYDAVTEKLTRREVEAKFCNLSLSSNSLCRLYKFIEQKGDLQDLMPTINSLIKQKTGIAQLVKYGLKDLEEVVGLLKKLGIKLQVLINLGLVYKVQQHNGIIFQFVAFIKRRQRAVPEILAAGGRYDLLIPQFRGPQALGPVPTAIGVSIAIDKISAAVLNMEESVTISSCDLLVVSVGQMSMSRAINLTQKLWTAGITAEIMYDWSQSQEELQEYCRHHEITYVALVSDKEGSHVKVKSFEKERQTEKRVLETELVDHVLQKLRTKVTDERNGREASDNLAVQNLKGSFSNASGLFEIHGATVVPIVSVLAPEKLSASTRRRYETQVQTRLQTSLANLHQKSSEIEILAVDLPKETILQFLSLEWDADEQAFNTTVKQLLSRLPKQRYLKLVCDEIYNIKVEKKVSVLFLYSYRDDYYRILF
Cytochrome P450 3A4, sequence (P08684 whole entry): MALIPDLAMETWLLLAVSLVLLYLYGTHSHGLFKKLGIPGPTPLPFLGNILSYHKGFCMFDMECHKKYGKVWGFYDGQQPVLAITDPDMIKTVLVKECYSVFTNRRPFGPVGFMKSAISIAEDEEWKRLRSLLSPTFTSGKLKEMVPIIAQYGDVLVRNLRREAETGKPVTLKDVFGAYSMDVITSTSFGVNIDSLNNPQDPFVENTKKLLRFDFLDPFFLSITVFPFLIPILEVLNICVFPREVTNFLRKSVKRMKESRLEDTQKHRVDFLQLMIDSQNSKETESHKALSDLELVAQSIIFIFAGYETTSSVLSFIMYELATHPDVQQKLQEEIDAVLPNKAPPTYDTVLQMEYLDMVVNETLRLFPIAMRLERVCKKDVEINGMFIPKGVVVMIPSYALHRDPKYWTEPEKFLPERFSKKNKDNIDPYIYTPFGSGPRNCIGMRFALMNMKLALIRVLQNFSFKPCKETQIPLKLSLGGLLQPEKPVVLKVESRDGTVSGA

| SMILES | EC50 [1] [nM] | logD at 1 h [2] | fraction unbound [6] | fEC50 [8] [nM] | half-life [9] [h] | Cmax [10] [µM] | fraction unbound at 24 h [11] | fCmax [12] [nM] | CLH [13] [µL/min] | fAUC [14] [µM·h] | F [15] [%] | CLH [16] [µL/min] | CL free [17] [mL/min/kg] | Vd [18] [L/kg] | fVdss [19] [L/kg] | other results |
| --- | --- | --- | --- | --- | --- | --- | --- | --- | --- | --- | --- | --- | --- | --- | --- | --- |
| CNC(=O)c1ncn2cc(-c3c(F)ccc(NS(=O)(=O)c4cc(F)cnc4C)c3F)ccc12 | 5800 | 1.9 |  |  |  |  |  |  |  |  |  |  |  |  |  |  |
| CNC(=O)c1ncn2c1CC[C@H](c1c(F)ccc(NS(=O)(=O)c3cc(Cl)cnc3OC)c1F)C2 | 460 |  | 0.45 | 240 |  |  |  |  |  |  |  |  |  |  |  | IC50 [3]: 33000 nM; fEC50 [4]: 110 nM; EC50 [5]: 240 nM; IC50 [7]: 69 nM |
| CNC(=O)c1ncn2cc(-c3c(F)ccc(NS(=O)(=O)c4cc(C#N)cnc4OC)c3F)ccc12 | > 10000 | 1.6 |  |  |  |  |  |  |  |  |  |  |  |  |  |  |
| CNC(=O)c1ncn2c1CC[C@H](c1c(F)ccc(NS(=O)(=O)c3cc(F)cnc3OC)c1F)C2 | 1500 |  | 0.71 | 1000 | 0.9 | 14.2 | 0.012 | 180 | 13 | 0.14 | 95 | 7.8 | 340 | 0.19 | 15 |  |
| CNC(=O)c1n[nH]c2c(F)c(-c3c(F)ccc(NS(=O)(=O)c4cc(Cl)cnc4OC)c3F)ccc12 | 6100 |  | 0.03 | 180 | 8.9 | 10.4 | 0.002 | 20 | 11 | 0.13 | 25 | 5.8 | 88 | 0.11 | 56 |  |
| CNC(=O)c1ncn2cc(-c3c(F)ccc(NS(=O)(=O)c4cc(Cl)cnc4OC)c3F)ccc12 | 4900 |  | 0.22 | 1100 | 4.3 | 20.6 | 0.001 | 6.2 | 9.8 | 0.029 | 54 | 9 | 930 | 0.1 | 320 |  |
| CNC(=O)c1ncn2nc(-c3c(F)ccc(NS(=O)(=O)c4cc(Cl)cnc4OC)c3F)ccc12 | 870 |  | 0.32 | 280 |  |  |  |  | 5.9 |  |  | 3.8 |  |  |  |  |
| CNC(=O)c1ncn2c(F)c(-c3c(F)ccc(NS(=O)(=O)c4cc(Cl)cnc4OC)c3F)ccc12 | 1500 | 3 |  | 350 |  |  |  |  |  |  |  |  |  |  |  |  |
| CNC(=O)c1ncn2cc(-c3c(F)ccc(NS(=O)(=O)c4cc(F)cnc4OC)c3F)ccc12 | > 10000 | 2.3 |  |  |  |  |  |  |  |  |  |  |  |  |  |  |
| CNC(=O)c1ncn2cc(-c3c(F)ccc(NS(=O)(=O)c4cc(Cl)cnc4OC)c3F)ncc12 |  |  |  | 2400 |  |  |  |  |  |  |  |  |  |  |  | Activity [20]: Active; Activity [21]: Active; Activity [22]: Active |
| COc1ncc(Cl)cc1S(=O)(=O)Nc1ccc(F)c(-c2ccc3c(-c4ncc[nH]4)n[nH]c3c2F)c1F | 1400 |  | 0.04 | 55 | 3.8 | 0.62 | 0.001 | 0.31 | 8.2 | 0.0011 | 1.5 | 4.4 | 740 | 0.09 | 180 |  |
| COc1ncc(Cl)cc1S(=O)(=O)Nc1ccc(F)c(-c2ccc3c(-c4ncc[nH]4)ncn3c2)c1F | 1700 |  | 0.1 | 170 | 2.4 | 14.3 | 0.001 | 16 | 15 | 0.093 | 70 | 2.8 | 390 | 0.1 | 93 |  |
| CNC(=O)c1ncn2cc(-c3c(F)ccc([N-]S(=O)(=O)c4cc(Cl)cnc4OC)c3F)ncc12.[K+] |  |  |  |  |  | 40 |  | 28 |  | 0.14 |  |  |  |  |  | bioavailability ([15]; Sprague-Dawley): 88% |
